Some results are limits rather than exact numbers.

The nature of data set [1]: Metabolic stability in human liver microsomes (HLM). It counts as in vitro ADME. As to the method: Metabolic stability in HLM was measured as described in J Comput Aided Mol Des 2015, 29, 795.
Another data set is described as follows: Kinetic solubility. As to conditions: kinetic from dmso stock. The class given is physicochemical. As to the method:
Kinetic solubility was measured as described in Comput Aided Mol Des 2015, 29, 795.

Data set [2] has as its target Prolyl Oligopeptidase (hPREP) (Homo sapiens (Human), UniProt P48147). Kind of data set: hPREP inhibition assay. As to conditions: hPREP 0.6 nM, Z-Gly-Pro-amino-methylcoumarin 50 μM; read-out: PREP IC50. It counts as biochemical. The method, boiled down: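 Recombinant human PREP at 0.6 nM final, with Z-Gly-Pro-AMC substrate at 50 μM final. Buffer: 25 mM Tris HCl pH 7.5, 250 mM NaCl, 0.01% Triton X-100, 5 mM glutathione. Incubated 20 min at rt in the dark; fluorogenic AMC release read.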

For another data set, the target named is FAP Mouse Plasma (Mus musculus (Mouse), UniProt P97321). As to the kind of experiment: FAP plasma inhibition assay, mouse plasma. The class given is biochemical. As to conditions: mouse plasma dilution 1:67, Ala-Pro-AMC 75 μM; n = 1. As to the method:
(§1) This assay was adapted from the method described in Example 53 for detection of FAP target engagement enzyme activity in plasma. Plasma (anticoagulant K2EDTA) was used as the enzyme source: Human plasma (Pooled from AZ Biobank) and Mouse plasma (AZ AST Biobank). 384-Well black fluotrack PS plates (Greiner 781076) were used. 20 μL diluted plasma (Human plasma dilution 1:40, Mouse plasma dilution 1:67) in buffer (PBS, 0.1% BSA) was added to 0.6 μL compounds (in DMSO). Compounds were tested using 10 CR, 3-fold dilution series from 500 nM FAC. Two replicates for each assay point were run on the same plate. A fluorescence blank read was taken before substrate addition. Substrate, Ala-Pro-AMC (ARI-3144) stock solution (20 mM in DMSO) was diluted in buffer (PBS, 0.1% BSA) to 150 μM concentration and 20 μL added giving 75 μM FAC. Plates were incubated for 40 min at rt in the dark. The plates were read on a Beckman Paradigm® reader with excitation 360 nm and emission 465 nm. Data were analyzed in Excel (IDBS XLfit Add-In) using a one site dose response model (4-parameter logistic fit). […] Raw data signals were normalized using 1.5% DMSO in diluted plasma as 0% control and 1.5% DMSO in buffer (no plasma) as 100% inhibitor control.

For another data set, the system named is Human Hepatocytes (hHep). As to the kind of experiment: Metabolic stability in human hepatocytes (hHep). The class given is in vitro ADME. As to the method:
Metabolic stability in human hepatocytes was measured as described in Xenobiotica 2010, 40, 637.

The next data set deals with hFAP (Homo sapiens (Human), UniProt Q12884).
The target of data set [3] is human dipeptidylpeptidase 7 (hDPP7) (Homo sapiens (Human), UniProt Q9UHL4). Kind of data set: hDPP7 inhibition assay. The class given is biochemical. As to conditions: highest compound concentration 10 μM; n = 1. How it is done:
Compounds were tested in a biochemical inhibition assay using human dipeptidylpeptidase 7 (hDPP7) enzyme (BPS Bioscience, #80070) and the substrate Ala-Pro-amino-methylcoumarin (BPS Bioscience, #80305) at 10 μM FAC. The enzymatic reactions were conducted in duplicate at rt for 20 min in 50 μL assay buffer (10 mM Tris-HCl, pH 7.4, 10 mM MgCl2, 1 mM MnCl2). Compound solutions (in DMSO) at 10 CR, 3-fold dilution series were prepared in assay buffer ten-fold higher than the final concentration, and 5 μL of the dilution was added to a 50 μL reaction so that the highest compound concentration was 10 μM FAC and the concentration of DMSO was 1% in all wells. The plates were read on a PHERAstarPLUS (BMG) using kinetic mode with excitation 340 nm and emission 460 nm. Data were analyzed in Graph Pad Prism. Raw data signals were normalized using 1% DMSO as 0% control and no enzyme as 100% inhibitor control.

Another data set deals with Rat Hepatocytes (rHep). As to the kind of experiment: Metabolic stability in rat hepatocytes (rHep). It counts as in vitro ADME. How it is done:
Metabolic stability in rat hepatocytes was measured as described in J Comput Aided Mol Des 2015, 29, 795.

Data set [4] has as its target human dipeptidylpeptidase 9 (hDPP9) (Homo sapiens (Human), UniProt Q86TI2). As to the kind of experiment: hDPP9 inhibition assay. The note with it: highest compound concentration 10 μM; n = 1. It counts as biochemical. How it is done: Compounds were tested in a biochemical inhibition assay using human dipeptidylpeptidase 9 (hDPP9) enzyme (R&D, #5419-SE-010) and the substrate Gly-Pro-amino-methylcoumarin (Enzo #BML-P189-0005) at 10 μM FAC. The enzymatic reactions were conducted in duplicate at rt for 30 min in 50 μL assay buffer (50 mM Tris, pH 7.5, 0.1% BSA). Compound solutions (in DMSO) at 10 CR, 3-fold dilution series were prepared in assay buffer ten-fold higher than the final concentration, and 5 μL of the dilution was added to a 50 μL reaction so that the highest compound concentration was 10 μM FAC and the concentration of DMSO was 1% in all wells. The plates were read on a PHERAstarPLUS (BMG) using kinetic mode with excitation 340 nm and emission 460 nm. Data were analyzed in Graph Pad Prism. […] Raw data signals were normalized using 1% DMSO as 0% control and no enzyme as 100% inhibitor control.

The target of data set [5] is human dipeptidylpeptidase 8 (hDPP8) (Homo sapiens (Human), UniProt Q6V1X1). As to the kind of experiment: hDPP8 inhibition assay. As to conditions: single concentration 10 μM; n = 1. The class given is biochemical. As to the method:
Compounds were tested in a biochemical inhibition assay using human dipeptidylpeptidase 8 (hDPP8) enzyme (BPS Bioscience, #80800) and the substrate Gly-Pro-amino-methylcoumarin (Enzo #BML-P189-0005) at 10 μM FAC. The enzymatic reactions were conducted in duplicate at rt for 20 min in 50 μL assay buffer (50 mM Tris, pH 7.5, 0.1% BSA). Compound solutions (in DMSO), were prepared in assay buffer ten-fold higher than the final concentration, and 5 μL of the dilution was added to a 50 μL reaction so that the compound concentration was 10 μM FAC and the concentration of DMSO was 1% in all wells. The plates were read on a PHERAstarPLUS (BMG) using kinetic mode with excitation 340 nm and emission 460 nm. Data were analyzed in Graph Pad Prism. Raw data signals were normalized using 1% DMSO as 0% control and no enzyme as 100% inhibitor control.

The next data set deals with FAP Human Plasma (Homo sapiens (Human), UniProt Q12884). As to the kind of experiment: FAP plasma inhibition assay, human plasma. The class given is biochemical. As to conditions: human plasma dilution 1:40, Ala-Pro-AMC 75 μM; n = 1. How it is done: as §1
Data set [6] deals with human Fibroblast activation protein alpha (hFAP) (Homo sapiens (Human), UniProt Q12884). As to the kind of experiment: hFAP inhibition assay (tight binders). It counts as biochemical. As to conditions: tight-binder format, Ala-Pro-AMC 20 μM, 2.5 h incubation; n = 1 or geometric mean (n = 5-10). How it is done: Data were analyzed in Genedata Screener®.
Sequence of human Fibroblast activation protein alpha (hFAP) (Q12884 38-760): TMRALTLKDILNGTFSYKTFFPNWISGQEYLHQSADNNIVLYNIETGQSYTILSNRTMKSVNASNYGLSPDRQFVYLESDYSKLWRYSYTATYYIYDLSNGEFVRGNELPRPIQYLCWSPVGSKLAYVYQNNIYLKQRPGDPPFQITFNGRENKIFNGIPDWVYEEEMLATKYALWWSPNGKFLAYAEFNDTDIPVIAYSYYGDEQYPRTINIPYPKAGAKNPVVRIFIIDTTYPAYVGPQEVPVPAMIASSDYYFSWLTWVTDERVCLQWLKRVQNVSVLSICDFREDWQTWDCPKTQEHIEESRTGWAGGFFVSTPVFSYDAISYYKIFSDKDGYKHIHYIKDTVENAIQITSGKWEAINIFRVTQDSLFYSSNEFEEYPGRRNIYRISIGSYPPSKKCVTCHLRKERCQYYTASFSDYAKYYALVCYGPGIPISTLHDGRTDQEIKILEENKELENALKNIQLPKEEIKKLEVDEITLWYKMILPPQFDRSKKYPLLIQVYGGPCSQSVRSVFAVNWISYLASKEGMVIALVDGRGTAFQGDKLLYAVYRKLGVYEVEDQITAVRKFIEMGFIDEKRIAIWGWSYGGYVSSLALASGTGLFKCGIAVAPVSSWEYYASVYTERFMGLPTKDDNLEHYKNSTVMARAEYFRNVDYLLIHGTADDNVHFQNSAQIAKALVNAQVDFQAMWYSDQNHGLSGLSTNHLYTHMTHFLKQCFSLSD

Sequence of Prolyl Oligopeptidase (hPREP) (P48147 whole entry): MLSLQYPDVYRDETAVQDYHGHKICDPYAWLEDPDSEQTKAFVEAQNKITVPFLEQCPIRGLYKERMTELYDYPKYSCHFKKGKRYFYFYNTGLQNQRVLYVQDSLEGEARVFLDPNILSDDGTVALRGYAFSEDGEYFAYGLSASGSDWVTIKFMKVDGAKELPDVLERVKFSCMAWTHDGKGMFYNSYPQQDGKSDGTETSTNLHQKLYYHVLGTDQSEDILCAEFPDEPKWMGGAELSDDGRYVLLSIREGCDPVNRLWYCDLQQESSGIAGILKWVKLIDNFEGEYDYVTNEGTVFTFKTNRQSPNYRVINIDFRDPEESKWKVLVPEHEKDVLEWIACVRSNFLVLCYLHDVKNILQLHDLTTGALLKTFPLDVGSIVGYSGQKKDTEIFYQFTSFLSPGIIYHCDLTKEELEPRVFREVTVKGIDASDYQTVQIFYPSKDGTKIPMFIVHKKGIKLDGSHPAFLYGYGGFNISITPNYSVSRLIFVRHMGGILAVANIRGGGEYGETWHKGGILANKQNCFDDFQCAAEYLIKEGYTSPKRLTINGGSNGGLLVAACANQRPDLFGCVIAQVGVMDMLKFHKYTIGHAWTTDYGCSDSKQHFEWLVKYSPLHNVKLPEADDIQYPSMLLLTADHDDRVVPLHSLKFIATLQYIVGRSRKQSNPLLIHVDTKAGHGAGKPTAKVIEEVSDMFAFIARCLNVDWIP
Sequence of hFAP (Q12884 38-760): as the sequence (Q12884 38-760) above
Sequence of human dipeptidylpeptidase 8 (hDPP8) (Q6V1X1 whole entry): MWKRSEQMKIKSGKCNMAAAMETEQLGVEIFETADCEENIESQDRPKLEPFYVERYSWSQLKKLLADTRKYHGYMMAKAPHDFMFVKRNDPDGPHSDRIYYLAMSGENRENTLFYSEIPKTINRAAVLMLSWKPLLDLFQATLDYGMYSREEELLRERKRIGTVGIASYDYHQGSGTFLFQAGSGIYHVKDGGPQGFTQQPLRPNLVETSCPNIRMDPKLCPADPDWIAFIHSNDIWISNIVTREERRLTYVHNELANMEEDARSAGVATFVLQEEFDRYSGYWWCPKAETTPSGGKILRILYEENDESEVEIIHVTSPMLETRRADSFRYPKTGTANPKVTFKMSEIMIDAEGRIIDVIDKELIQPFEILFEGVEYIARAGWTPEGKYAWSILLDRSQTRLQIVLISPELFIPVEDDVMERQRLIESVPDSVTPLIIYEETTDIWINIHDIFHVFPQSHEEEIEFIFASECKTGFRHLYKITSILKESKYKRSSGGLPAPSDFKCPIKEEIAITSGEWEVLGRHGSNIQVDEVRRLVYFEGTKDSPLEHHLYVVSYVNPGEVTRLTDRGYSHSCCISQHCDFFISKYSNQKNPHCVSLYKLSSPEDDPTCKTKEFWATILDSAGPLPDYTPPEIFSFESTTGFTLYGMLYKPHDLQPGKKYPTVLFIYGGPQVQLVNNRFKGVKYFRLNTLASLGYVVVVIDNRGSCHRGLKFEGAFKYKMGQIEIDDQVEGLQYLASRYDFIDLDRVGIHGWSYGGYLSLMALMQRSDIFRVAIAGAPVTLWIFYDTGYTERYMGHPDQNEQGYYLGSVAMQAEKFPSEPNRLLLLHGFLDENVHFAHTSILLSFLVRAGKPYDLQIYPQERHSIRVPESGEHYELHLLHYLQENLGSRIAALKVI
Sequence of FAP Human Plasma (Q12884 24-760 limits assumed): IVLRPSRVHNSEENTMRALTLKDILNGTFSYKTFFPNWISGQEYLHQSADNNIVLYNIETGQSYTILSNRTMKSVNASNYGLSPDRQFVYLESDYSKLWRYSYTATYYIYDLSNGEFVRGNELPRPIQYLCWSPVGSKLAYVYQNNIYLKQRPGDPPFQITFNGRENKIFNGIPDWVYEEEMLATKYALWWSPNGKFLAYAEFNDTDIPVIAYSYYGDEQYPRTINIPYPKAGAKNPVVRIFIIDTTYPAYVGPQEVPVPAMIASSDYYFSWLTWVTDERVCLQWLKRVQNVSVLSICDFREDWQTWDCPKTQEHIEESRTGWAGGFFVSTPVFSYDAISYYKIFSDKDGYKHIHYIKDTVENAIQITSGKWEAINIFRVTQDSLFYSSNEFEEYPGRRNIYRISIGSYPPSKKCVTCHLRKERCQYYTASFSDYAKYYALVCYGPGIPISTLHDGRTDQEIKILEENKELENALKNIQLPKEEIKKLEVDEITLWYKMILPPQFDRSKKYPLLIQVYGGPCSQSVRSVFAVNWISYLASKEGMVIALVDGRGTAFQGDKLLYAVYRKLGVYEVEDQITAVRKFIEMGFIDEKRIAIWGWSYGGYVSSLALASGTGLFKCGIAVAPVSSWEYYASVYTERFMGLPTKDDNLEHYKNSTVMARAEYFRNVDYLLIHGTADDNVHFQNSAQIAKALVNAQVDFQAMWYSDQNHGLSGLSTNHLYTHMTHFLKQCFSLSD
Sequence of FAP Mouse Plasma (P97321 24-761 limits assumed): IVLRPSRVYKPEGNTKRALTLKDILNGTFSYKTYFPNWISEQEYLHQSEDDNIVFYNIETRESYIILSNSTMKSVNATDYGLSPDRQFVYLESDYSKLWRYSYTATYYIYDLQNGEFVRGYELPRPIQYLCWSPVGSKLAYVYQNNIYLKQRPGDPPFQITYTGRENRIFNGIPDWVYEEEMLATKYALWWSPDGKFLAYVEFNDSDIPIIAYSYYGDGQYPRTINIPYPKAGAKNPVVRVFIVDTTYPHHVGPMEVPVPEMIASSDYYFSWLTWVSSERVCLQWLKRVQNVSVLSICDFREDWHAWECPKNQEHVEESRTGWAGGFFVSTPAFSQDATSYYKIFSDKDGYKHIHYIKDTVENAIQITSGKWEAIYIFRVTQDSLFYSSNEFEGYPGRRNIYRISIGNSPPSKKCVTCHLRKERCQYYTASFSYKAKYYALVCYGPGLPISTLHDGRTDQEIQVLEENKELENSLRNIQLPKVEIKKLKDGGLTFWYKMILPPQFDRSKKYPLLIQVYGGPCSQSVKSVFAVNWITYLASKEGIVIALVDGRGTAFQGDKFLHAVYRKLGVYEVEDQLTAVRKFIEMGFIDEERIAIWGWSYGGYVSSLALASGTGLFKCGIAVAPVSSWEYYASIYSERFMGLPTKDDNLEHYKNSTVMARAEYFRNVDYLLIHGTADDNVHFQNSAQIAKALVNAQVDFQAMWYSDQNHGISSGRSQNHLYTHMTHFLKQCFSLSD
Sequence of human dipeptidylpeptidase 9 (hDPP9) (Q86TI2 whole entry): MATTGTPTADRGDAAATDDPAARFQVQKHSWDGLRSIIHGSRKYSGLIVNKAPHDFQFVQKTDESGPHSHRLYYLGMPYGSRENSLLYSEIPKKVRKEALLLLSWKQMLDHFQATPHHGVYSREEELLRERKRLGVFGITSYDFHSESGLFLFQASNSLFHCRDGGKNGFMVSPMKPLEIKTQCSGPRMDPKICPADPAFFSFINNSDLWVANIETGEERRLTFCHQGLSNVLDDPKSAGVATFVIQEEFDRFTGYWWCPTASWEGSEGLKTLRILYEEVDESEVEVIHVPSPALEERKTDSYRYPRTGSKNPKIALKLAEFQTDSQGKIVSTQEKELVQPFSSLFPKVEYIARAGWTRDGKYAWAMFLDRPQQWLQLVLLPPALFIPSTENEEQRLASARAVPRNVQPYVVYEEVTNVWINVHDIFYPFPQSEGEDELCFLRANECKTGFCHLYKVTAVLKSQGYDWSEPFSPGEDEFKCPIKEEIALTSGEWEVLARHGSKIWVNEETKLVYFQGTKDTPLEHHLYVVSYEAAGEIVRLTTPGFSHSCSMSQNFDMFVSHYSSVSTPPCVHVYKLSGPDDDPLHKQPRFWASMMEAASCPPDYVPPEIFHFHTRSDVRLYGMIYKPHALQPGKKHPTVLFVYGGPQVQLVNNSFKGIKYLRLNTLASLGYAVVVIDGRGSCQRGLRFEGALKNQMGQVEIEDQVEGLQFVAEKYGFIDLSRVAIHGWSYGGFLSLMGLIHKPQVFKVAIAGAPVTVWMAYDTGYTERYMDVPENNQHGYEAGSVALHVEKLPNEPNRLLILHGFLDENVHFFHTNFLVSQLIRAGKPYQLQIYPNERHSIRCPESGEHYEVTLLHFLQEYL

As for `N#C[C@@H]1C[C@@H]2C[C@@H]2N1C(=O)CNC(=O)c1ccnc2cc(C(F)(F)F)ccc12` [Example 23, N-(2-((1S,3S,5S)-3-Cyano-2-azabicyclo[3.1.0]hexan-2-yl)-2-oxoethyl)-7-(trifluoromethyl)quinoline-4-carboxamide], the microsomal CLint in data set [1] stood at 9.9 µL/min/mg. Moreover, the solubility in the data set “Kinetic solubility” is over 1000 µM. Moreover, the IC50 was 12000 nM in [2]; 1.9 nM against FAP Mouse Plasma; 0.81 nM against hFAP; over 10 nM in data set [3]; over 10 nM in data set [4]; 3.6 nM against FAP Human Plasma. This compound also returned an IC50 in [6] of 0.33 nM. Also, the “hHep CLint” value in the data set on Human Hepatocytes (hHep) is 1.6 μL/min/1E6. Further, the “rHeps CLint” value in the data set on Rat Hepatocytes (rHep) came out at 7.7 μL/min/1E6. Besides, the “hDPP8 Activity at Compound Concentration 10 μM” value in [5] is given as “Not Active”.

(Values after US20230406840A1, “N-(2-(3-CYANO-2-AZABICYCLO[3.1.0]HEXAN-2-YL)-2-OXOETHYL)QUINOLINE-4-CARBOXAMIDES” (AstraZeneca AB, priority 2022, published 2023).)
